Assay results published in article PMC5296932 (Angewandte Chemie (International ed. in English), 2016).
Starred links: 1 amine or outer side, 2 acyl side, 3 side chain; linkers in the order of their positions; H or OH if unused. Positions of bridges follow the written chain, without caps; N, C: chain ends. Non-standard residues stand in square brackets, D forms with d. Residues, ends and D or L forms follow the SMILES beside them. X1 = O=C(c1cc(CS[*:2])cc(CS[*:3])c1)[*:1]; 2Nal = N[C@@H](Cc1ccc2ccccc2c1)C(=O)O; Mpa = O=C(O)CCS

Columns and labels:
[1] = Proteolytic stability in human serum; type: in vitro ADME
[2] = In vitro reduction of disulfide bonds by glutathione; type: physicochemical; settings: 5 mM glutathione, 2 h

half-life in human serum [1]	reduction of the disulfide bonds [2]	half-life ([1]; human serum) [min]	SMILES
~ 10 h	completely reduced		CC(C)C[C@@H]1NC(=O)[C@H](C)NC(=O)[C@@H]2CSSCc3cc(cc(c3)C(=O)N[C@@H](CCCNC(=N)N)C(=O)N[C@@H](CCCNC(=N)N)C(=O)N[C@@H](CCCNC(=N)N)C(=O)N[C@@H](CCCNC(=N)N)C(=O)N[C@@H](Cc3ccc4ccccc4c3)C(=O)N[C@@H](Cc3ccccc3)C(=O)N2)CSSC[C@@H](C(N)=O)NC(=O)[C@H](CCC(N)=O)NC(=O)[C@H](CC(C)C)NC(=O)[C@H](Cc2c[nH]c3ccccc23)NC(=O)[C@H](CO)NC(=O)[C@H](Cc2c[nH]c3ccccc23)NC(=O)[C@H](CC(=O)O)NC1=O [Peptide 4] (RRRR[2Nal]FCALDWSWLQC-NH2; linker N-7-16 via X1)
		~30	CC(C)C[C@H](NC(=O)[C@H](C)NC(=O)[C@@H]1CSSCCC(=O)N[C@@H](CCCNC(=N)N)C(=O)N[C@@H](CCCNC(=N)N)C(=O)N[C@@H](CCCNC(=N)N)C(=O)N[C@@H](CCCNC(=N)N)C(=O)N[C@@H](Cc2ccc3ccccc3c2)C(=O)N[C@@H](Cc2ccccc2)C(=O)N1)C(=O)N[C@@H](CC(=O)O)C(=O)N[C@@H](Cc1c[nH]c2ccccc12)C(=O)N[C@@H](CO)C(=O)N[C@@H](Cc1c[nH]c2ccccc12)C(=O)N[C@@H](CC(C)C)C(=O)N[C@@H](CCC(N)=O)C(=O)N[C@H](C(N)=O)[C@@H](C)O [Peptide 6] ([Mpa]RRRR[2Nal]FCALDWSWLQT-NH2; disulfide 1-8; C-terminus assumed)
